Test results: publication PMC6309430 (Journal of pharmaceutical sciences, 2017)
Where two headings read alike, the source gives them in different places.

Key:
[1] = biological target: T1, P-glycoprotein (Pgp; Abcb1a, MDR3) (Mus musculus, UniProt P21447); assay: intrinsic protein; assay type: binding
[2] = biological target: T1, P-glycoprotein (Pgp; Abcb1a, MDR3); assay: intrinsic protein; assay type: binding; remark: listed apart in the source

T1 sequence (P21447 whole entry): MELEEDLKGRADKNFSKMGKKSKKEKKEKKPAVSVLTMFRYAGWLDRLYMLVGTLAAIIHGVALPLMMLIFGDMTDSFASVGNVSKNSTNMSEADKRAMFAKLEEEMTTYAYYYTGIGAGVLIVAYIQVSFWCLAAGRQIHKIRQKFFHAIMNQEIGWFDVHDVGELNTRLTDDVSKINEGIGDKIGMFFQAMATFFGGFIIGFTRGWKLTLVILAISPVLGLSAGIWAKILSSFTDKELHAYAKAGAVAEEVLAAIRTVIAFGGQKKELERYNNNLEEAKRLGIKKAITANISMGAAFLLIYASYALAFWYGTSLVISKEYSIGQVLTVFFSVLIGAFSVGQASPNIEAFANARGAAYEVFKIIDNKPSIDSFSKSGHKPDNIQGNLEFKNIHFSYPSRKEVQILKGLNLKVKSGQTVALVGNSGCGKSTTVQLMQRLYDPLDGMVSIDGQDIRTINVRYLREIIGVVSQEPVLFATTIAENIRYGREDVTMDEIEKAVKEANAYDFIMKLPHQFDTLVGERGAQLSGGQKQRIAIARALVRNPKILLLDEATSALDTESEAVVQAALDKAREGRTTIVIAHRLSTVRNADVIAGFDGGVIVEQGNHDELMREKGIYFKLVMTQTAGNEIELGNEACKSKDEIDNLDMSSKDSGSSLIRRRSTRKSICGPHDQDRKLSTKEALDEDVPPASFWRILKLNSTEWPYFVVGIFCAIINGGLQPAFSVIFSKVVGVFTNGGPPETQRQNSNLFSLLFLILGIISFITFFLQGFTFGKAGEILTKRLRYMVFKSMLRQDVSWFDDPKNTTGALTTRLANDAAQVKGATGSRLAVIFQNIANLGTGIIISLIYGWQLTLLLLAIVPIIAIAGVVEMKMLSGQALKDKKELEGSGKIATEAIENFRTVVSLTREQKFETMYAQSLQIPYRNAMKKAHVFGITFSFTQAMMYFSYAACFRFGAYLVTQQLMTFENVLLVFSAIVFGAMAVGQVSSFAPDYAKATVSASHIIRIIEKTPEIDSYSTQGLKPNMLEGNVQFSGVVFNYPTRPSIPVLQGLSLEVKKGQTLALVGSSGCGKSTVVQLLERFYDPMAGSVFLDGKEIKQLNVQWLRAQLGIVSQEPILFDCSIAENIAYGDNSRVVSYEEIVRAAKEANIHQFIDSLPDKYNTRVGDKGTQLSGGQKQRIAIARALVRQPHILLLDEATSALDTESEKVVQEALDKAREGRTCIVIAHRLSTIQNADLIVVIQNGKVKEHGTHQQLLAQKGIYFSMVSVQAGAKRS

SMILES | Kd [1] [µM] | Kd [2] [µM]
CN1CCC[C@@H]1Cc1c[nH]c2ccc(CCS(=O)(=O)c3ccccc3)cc12 [ETT, eletriptan] | 115 ± 10 | –
CNS(=O)(=O)Cc1ccc2[nH]cc(CCN(C)C)c2c1 [STT, sumatriptan] | – | 92.6 ± 25
